Source: patent US20240016777A1, “COMPOUNDS AND METHODS FOR TREATING VIRAL INFECTIONS” (priority 2020, published 2024)

target: SARS-CoV-2 M^pro (Severe acute respiratory syndrome coronavirus 2 (2019-nCoV) (SARS-CoV-2), UniProt P0DTD1); assay: biochemical; conditions: compound at 17 μM, duplicates, 20 min pre-incubation; read-out: Activity (% enzyme activity by fluorescence relative to initial enzyme activity)

In the case of CC(C)=CCC/C(C)=C/Cc1c(-c2ccc(O)cc2O)oc2cc(O)cc(O)c2c1=O [5,7,2′,4′-Tetrahydroxy-3-geranylflavone], the remaining activity at 17 µM is reported as 10 to 80%.

same assay, conditions: read-out: Activity (% enzyme activity by fluorescence relative to initial enzyme activity), compound at 17 μM, duplicates, 20 min pre-incubation

First: CC(C)=CCc1cc(C2CC(=O)c3c(O)cc(O)cc3O2)c(CC=C(C)C)c(O)c1O (racemic) [(+/−)-Sigmoidin A]
Second: CC(C)=CCc1cc([C@@H]2CC(=O)c3c(O)cc(O)c(CC=C(C)C)c3O2)cc(CC=C(C)C)c1O [5-Hydroxysophoranone]
The remaining activity at 17 µM of the first is lower: 10 to 80% for the first, > 80% for the second.

COc1ccc2c(c1CC=C(C)C)O[C@H](c1ccc(O)cc1O)CC2 (stereo in doubt) [2′,4′-Dihydroxy-7-methoxy-8-prenylflavan] and COc1cc(O)c(CC=C(C)C)c2c1C(=O)[C@H](O)[C@@H](c1ccc(O)cc1)O2 (stereo in doubt) [3,7,4′-Trihydroxy-5-methoxy-8-prenylflavanone] cannot be ordered by remaining activity at 17 µM: > 80% for the first, > 80% for the second.

Compared with CC(C)=CCc1c(O)ccc([C@H]2COc3c(CC=C(C)C)c(O)cc(O)c3C2=O)c1O (stereo in doubt) [5,7,2′,4′-Tetrahydroxy-8,3′-di(gamma,gamma-dimethylallyl)-isoflavanone], COc1c(-c2cc(O)c(O)c(CC=C(C)C)c2)oc2c(CC=C(C)C)c(O)cc(O)c2c1=O [5,7,3′,4′-Tetrahydroxy-3-methoxy-8,5′-diprenylflavone] is higher in remaining activity at 17 µM: 10 to 80% for the first, > 80% for the second.

Compared with COc1ccc([C@@H]2CC(=O)c3c(O)cc(O)c(CC=C(C)C)c3O2)cc1O (stereo in doubt) [5,7,3′-Trihydroxy-4′-methoxy-8-prenylflavanone], COc1ccc([C@@H]2CC(=O)c3c(O)cc(O)cc3O2)cc1CC=C(C)C [4′-O-Methyllicoflavanone] is lower in remaining activity at 17 µM: > 80% for the first, 10 to 80% for the second.

First: CC(C)=CCc1c(O)cc(O)c2c(=O)c(-c3ccc(O)cc3O)coc12 [2,3-dehydrokievitone]
Second: O=c1c(-c2ccc(O)cc2O)coc2cc(O)cc(O)c12 [2′-hydroxygenistein]
The remaining activity at 17 µM of the first is lower: 10 to 80% for the first, > 80% for the second.

C=C(C)[C@H](CC=C(C)C)Cc1c(O)cc(OC)c2c1O[C@H](c1ccc(O)cc1OC)CC2=O [2′-methoxykurarinone] and COc1c(O)cc2oc(-c3ccc(O)c(CC=C(C)C)c3)c(OC)c(=O)c2c1O [5,7,4-Trihydroxy-3,6-dimethoxy-3-prenylflavone] cannot be ordered by remaining activity at 17 µM: > 80% for the first, > 80% for the second.

First: COc1ccc(-c2oc3c(CC=C(C)C)c(O)cc(O)c3c(=O)c2O[C@@H]2O[C@@H](C)[C@H](O)[C@@H](O)[C@H]2O[C@@H]2O[C@@H](C)[C@H](O)[C@@H](O)[C@H]2O)cc1 [2″-O-Rhamnosylicariside II]
Second: COc1c(-c2ccc(O)c(O)c2)oc2c(C/C=C(\C)CCC=C(C)C)c(O)cc(O)c2c1=O [5,7,3′,4′-Tetrahydroxy-3-methoxy-8-geranylflavone]
The remaining activity at 17 µM of the first is lower: 10 to 80% for the first, > 80% for the second.

CC(C)=CCc1cc(-c2coc3cc(O)cc(O)c3c2=O)cc(CC=C(C)C)c1O [3′,5′-Diprenylgenistein] and COc1c(O)cc2oc(-c3cc(CC=C(C)C)c(O)c(CC=C(C)C)c3)c(OC)c(=O)c2c1O [5,7,4′-Trihydroxy-3,6-dimethoxy-3′,5′-diprenylflavone] cannot be ordered by remaining activity at 17 µM: > 80% for the first, > 80% for the second.

First: CC(C)=CCC/C(C)=C/Cc1c(O)ccc(-c2oc3cc(O)cc(O)c3c(=O)c2CC=C(C)C)c1O [3′-Geranyl-3-prenyl-2′,4′,5,7-tetrahydroxyflavone]
Second: CC(C)=CCC/C(C)=C/Cc1cc(-c2cc(=O)c3c(O)cc(O)cc3o2)c(O)cc1O [5′-Geranyl-5,7,2′,4′-tetrahydroxyflavone]
The remaining activity at 17 µM of the first is lower: 10 to 80% for the first, > 80% for the second.

Compared with CC(C)=CCc1c(O)cc2oc(-c3ccc(O)cc3)cc(=O)c2c1O [4′,5,7-Trihydroxy-6-prenylflavone], CC(C)=CCc1c(O)c(CC=C(C)C)c2occ(-c3ccc(O)cc3)c(=O)c2c1O [6,8-Diprenylgenistein] is lower in remaining activity at 17 µM: > 80% for the first, 10 to 80% for the second.

With COc1c(O)cc2oc(-c3cc(CC=C(C)C)c(O)c(CCC(C)CO)c3)c(OC)c(=O)c2c1O (stereo not shown) [5′-Prenylaliarin] the remaining activity at 17 µM was > 80%.
